From patent publication US8709385B2, “Poloxamer foamable pharmaceutical compositions with active agents and/or therapeutic cells and uses” (Foamix Ltd., priority 2008, dated 2014)
Read-outs that look alike come from different tables or passages of the source.

How the values were obtained:
[1] = Solubility and gelling of salicylic acid in Poloxamer 188 solution; type: physicochemical; settings: 0.50 gr. in 12.5 gr. of 20% Poloxamer 188
Description: In both vials, 1 & 2, there are 12.5 gr. of 20% Poloxamer 188/purified water stock solution (2.5 gr. Poloxamer 188+10 gr. purified water).

[2] = USP 29, cited from earlier work
[3] = Microscope observation for crystals of active agent; type: physicochemical; settings: Poloxamer 407 at 15% concentration in the formulation
Description: Poloxamer 407 functions as co-solubilizer ingredient of sodium diclofenac.

[4] = Solubility of 3% sodium diclofenac in Poloxamer 407 in water; type: physicochemical; settings: 3% in 5, 7 and 10 percent of Poloxamer in water, heated to 75° C. and cooled
Experimental: All 3 concentrations were heated to 75° C. to dissolution and cooled.

Row | state of Poloxamer 188 solution with doubled salicylic acid concentration [1] | crystals under the microscope [3] | crystals after 24 h [4] | Compound | solubility in water ([2]; 20° C.) | solubility in water [2]
1 | viscous gel with no fluidity |  |  | O=C(O)c1ccccc1O [Salicylic acid] | ~0.2% | 1 gr. in 460 gr.
2 |  | crystals were not observed | crystals were visually observed | O=C(O)Cc1ccccc1Nc1c(Cl)cccc1Cl [sodium diclofenac] |  | 
